Test results taken from ChEMBL document CHEMBL4742385 (2019).
Several values for one entry are separate records, joined by “and”; a condition that tells them apart may be missing. Identical values can stand only once.

Legend:
[1] = biological target: Cyclin-C/Cyclin-dependent kinase 19 (Homo sapiens) (UniProt Q9BWU1+P24863); assay: Inhibition of humanGST-tagged CDK19/Cyc C expressed in Sf21 cells at 1 uM measured after 1 hr by fluorescence plate reader relative to control
[2] = biological target: CDK8/Cyclin C (Homo sapiens) (UniProt P49336+P24863); assay: Inhibition of human CDK8/Cyc C expressed in Sf21 cells at 1 uM measured after 1 hr by fluorescence plate reader relative to control
[3] = tested on: RPMI-8226; assay: Antiproliferative activity against human RPMI-8226 assessed as inhibition of cell growth at 1 uM after 8 days measured after Celltiter-Glo assay relative to control; type: functional; details: time 8 day; for inhibition at 1 µM: Homo sapiens, RPMI-8226, 192 h

Row | inhibition [1] | inhibition [2] | SMILES | inhibition at 1 µM [3] | inhibition (INH) [3]
1 | 98% | 96% | Cc1cc(NC(=O)/C=C/c2cnccc2-c2cnn(C)c2)ccc1CN1CCOCC1 | 58% | 
2 | 101% | 96% | CC(=O)n1cc(-c2ccncc2/C=C/C(=O)Nc2ccc(CN3CCOCC3)cc2)cn1 | 65% | 
3 | 98% | 102% | Cn1cc(-c2ccncc2/C=C/C(=O)Nc2ccc(Cn3ccnc3)cc2)cn1 | 64% | 
4 | 95% | 100% | CC1COCCN1Cc1ccc(NC(=O)/C=C/c2cnccc2-c2cnn(C)c2)cc1 (centres undefined) | 55% | 
5 | 96% | 95% | O=C(/C=C/c1cnccc1-c1ccc2ncn(CC3CC3)c2c1)Nc1ccc(CN2CCOCC2)cc1 | 60% | 
6 | 94% | 97% | O=C(/C=C/c1cnccc1-c1cnn(C2CC2)c1)Nc1ccc2c(c1)CN(CC(F)(F)C(F)(F)F)CC2 | 57% | 
7 | 104% | 106% | Cn1cc(-c2c(F)cncc2/C=C/C(=O)Nc2ccc3c(c2)CN(CC(F)(F)F)C3)cn1 | 56% | 
8 | 101% | 87% | Cn1cnc2ccc(-c3c(F)cncc3/C=C/C(=O)Nc3ccc(CN4CC(F)(F)C4)cc3)cc21 | 67% | 
9 | 100% | 101% | O=C(/C=C/c1cnccc1-c1ccc2nccn2c1)Nc1ccc(CN2CCOCC2)cc1 | 52% | 
10 | 97% | 100% | Cn1cc(-c2ccncc2/C=C/C(=O)Nc2ccc3c(c2)OCCO3)cn1 | 59% | 
11 | 95% | 99% | CCN1CCc2ccc(NC(=O)/C=C/c3cnccc3-c3cnn(C)c3)cc2C1 | 56% | 
12 | 99% | 101% | COC1CN(Cc2ccc(NC(=O)/C=C/c3cnccc3-c3cnn(C4CC4)c3)cc2)C1 | 59% | 
13 | 97% | 102% | Cn1cc(-c2ccncc2/C=C/C(=O)Nc2ccc(Cn3cccn3)cc2)cn1 | 53% | 
14 | 101% | 99% | CC(C)(F)Cc1ccc(NC(=O)/C=C/c2cncc(F)c2-c2cnn(C3CC3)c2)cc1 | 62% | 
15 | 99% | 100% | Cn1cc(-c2ccncc2/C=C/C(=O)Nc2ccc(CN3CCOCC3)c(C#N)c2)cn1 | 54% | 
16 | 99% | 98% | Cn1cc(-c2c(F)cncc2/C=C/C(=O)Nc2ccc(CN3CCOCC3)cc2F)cn1 | 53% | 
17 | 101% | 99% | Cn1cc(-c2ccncc2/C=C/C(=O)Nc2ccc(CC(C)(C)O)cc2)cn1 | 62% | 
18 | 93% | 97% | O=C(/C=C/c1cnccc1-c1cnn(C2CC2)c1)Nc1ccc(COC(F)F)cc1 | 52% | 
19 | 99% | 101% | Cn1cc(-c2ccncc2/C=C/C(=O)Nc2ccc(CNCC(F)(F)C(F)(F)F)cc2)cn1 | 56% | 
20 | 101% | 103% | O=C(/C=C/c1cnccc1-c1cnn(C2CC2)c1)Nc1ccc2c(c1)CN(CC(F)(F)F)C2 | 47% | 

Row | inhibition [1] | inhibition [2] | SMILES | inhibition at 1 µM [3] | inhibition (INH) [3]
21 | 92% | 96% | Cn1cc(-c2ccncc2/C=C/C(=O)Nc2ccc3c(c2)CCCC3=O)cn1 | 56% | 
22 | 98% | 100% | CN1CCc2ccc(NC(=O)/C=C/c3cnccc3-c3cnn(C)c3)cc2C1 | 52% | 
23 | 102% | 98% | O=C(/C=C/c1cnccc1-c1cnn(C2CC2)c1)Nc1ccc2c(c1)CN(CC(F)(F)F)CC2 | 63% | 
24 | 97% | 99% | CC1CN(Cc2ccc(NC(=O)/C=C/c3cnccc3-c3cnn(C)c3)cc2)CCO1 (centres undefined) | 55% | 
25 | 97% | 99% | Cn1cc(-c2ccncc2/C=C/C(=O)Nc2ccc(CN3CCOCC3)cc2F)cn1 | 56% | 
26 | 89% | 95% | O=C(/C=C/c1cnccc1-c1cnn(C2CC2)c1)Nc1ccc(C2CC2)cc1 | 53% | 
27 | 101% | 102% | O=C(/C=C/c1cncc(F)c1-c1cnn(C2CC2)c1)Nc1ccc(CN2CC3CC(C2)O3)cc1 | 59% | 
28 | 91% | 94% | Cn1cc(-c2ccncc2/C=C/C(=O)Nc2cc(F)c(CN3CCOCC3)cc2F)cn1 | 66% | 
29 | 99% | 100% | O=C(/C=C/c1cnccc1-c1cn[nH]c1)Nc1ccc(CN2CCOCC2)cc1 | 61% | 
30 | 98% | 100% | Cn1cc(-c2ccncc2/C=C/C(=O)Nc2ccc(CN3CCOCC3)cc2)cn1 | 60% | 
31 | 100% | 100% | COCc1ccc(NC(=O)/C=C/c2cnccc2-c2cnn(C)c2)cc1 | 65% | 
32 | 102% | 102% | Cn1cnc2ccc(-c3ccncc3/C=C/C(=O)Nc3ccc(CN4CCOCC4)cc3)cc21 | 65% | 
33 | 98% | 103% | Cc1noc(C)c1-c1ccc(NC(=O)/C=C/c2cnccc2-c2cnn(C3CC3)c2)c(F)c1 | 58% | 
34 | 101% | 101% | O=C(/C=C/c1cnccc1-c1cnn(Cc2ccccc2)c1)Nc1ccc(CN2CCOCC2)cc1 | 63% | 
35 | 100% | 100% | Cn1cc(-c2c(F)cncc2/C=C/C(=O)Nc2ccc(CN3CCOCC3)cc2)cn1 | 67% | 
36 | 97% | 92% | Cn1cc(-c2ccc(NC(=O)/C=C/c3cnccc3-c3cnn(C4CC4)c3)cc2)cn1 | 58% | 
37 | 94% | 96% | Cn1cc(-c2ccncc2/C=C/C(=O)Nc2ccc3c(c2)OCO3)cn1 | 53% | 
38 | 96% | 96% | O=C(/C=C/c1cnccc1-c1cnn(C2CCC2)c1)Nc1ccc(CN2CCOCC2)cc1 | 54% | 
39 | 96% | 97% | Cn1cc(-c2ccncc2/C=C/C(=O)Nc2ccc3c(c2)CCN3)cn1 | 58% | 
40 | 98% | 98% | O=C(/C=C/c1cnccc1-c1cnn(C2CC2)c1)Nc1ccc2c(c1)CN(C(=O)C(F)(F)F)CC2 | 57% | 

Row | inhibition [1] | inhibition [2] | SMILES | inhibition at 1 µM [3] | inhibition (INH) [3]
41 | 85% | 90% | CCn1cc(-c2ccncc2CCC(=O)Nc2ccc(CN3CCOCC3)cc2)cn1 | 62% | 
42 | 96% | 103% | COC1CN(Cc2ccc(NC(=O)/C=C/c3cncc(F)c3-c3cnn(C4CC4)c3)c(F)c2)C1 | 63% | 
43 | 95% | 96% | CCN1CCc2cc(NC(=O)/C=C/c3cnccc3-c3cnn(C)c3)ccc2C1 | 58% | 
44 | 99% | 98% | Cc1cc(NC(=O)/C=C/c2cnccc2-c2cnn(C3CC3)c2)ccc1CN1CCOCC1 | 62% | 
45 | 99% | 107% | O=C(/C=C/c1cnccc1-c1cnn(C2CC2)c1)Nc1ccc(CN2CC(F)C2)cc1 | 58% | 
46 | 93% | 99% | CN(C)CCOc1ccc(NC(=O)/C=C/c2cnccc2-c2cnn(C)c2)cc1 | 60% | 
47 | 97% | 94% | O=C(/C=C/c1cnccc1-c1cncs1)Nc1ccc(CN2CCOCC2)cc1 | 52% | 
48 | 96% | 95% | Cn1cc(-c2ccncc2/C=C/C(=O)Nc2ccc(Oc3ccncc3)cc2)cn1 | 54% | 
49 | 100% | 101% | COC1CN(Cc2ccc(NC(=O)/C=C/c3cncc(F)c3-c3cnn(C4CC4)c3)cc2)C1 | 63% | 
50 | 97% | 100% | Cc1ccc(NC(=O)/C=C/c2cnccc2-c2cn[nH]c2)c(F)c1 | 59% | 
51 | 100% | 101% | O=C(/C=C/c1cnccc1-c1cccs1)Nc1ccc(CCc2nnco2)cc1 | 59% | 
52 |  |  | O=C(/C=C/c1cnccc1-c1cnn(C2CC2)c1)Nc1ccc(CN2CC(F)(F)C2)cc1.O=C(O)/C=C/C(=O)O |  | 70%
53 | 96% | 101% | Cn1cnc2ccc(-c3c(F)cncc3/C=C/C(=O)Nc3ccc4c(c3)CN(CC(F)(F)F)C4)cc21 | 69% | 
54 | 74% | 105% | O=C(/C=C/c1cnccc1-c1cnn(C2CC2)c1)Nc1ccc(CN2CC(F)(F)C2)cc1F | 51% | 
55 | 98% | 110% | O=C(/C=C/c1cnccc1-c1cnn(C2CC2)c1)Nc1ccc(CN2CC3(COC3)C2)cc1 | 56% | 
56 | 101% (3×) and 100% (3×) | 102% [middle of 6 runs] | O=C(/C=C/c1cnccc1-c1cnn(C2CC2)c1)Nc1ccc(CN2CC(F)(F)C2)cc1 |  | 
57 |  |  | O=C(/C=C/c1cnccc1-c1cnn(C2CC2)c1)Nc1ccc(CN2CC(F)(F)C2)cc1.O=P(O)(O)O.O=P(O)(O)O |  | 69%
58 |  |  | CS(=O)(=O)O.O=C(/C=C/c1cnccc1-c1cnn(C2CC2)c1)Nc1ccc(CN2CC(F)(F)C2)cc1 |  | 70%
59 |  |  | O=C(/C=C/c1cnccc1-c1cnn(C2CC2)c1)Nc1ccc(CN2CC(F)(F)C2)cc1.O=C(O)CCC(=O)O |  | 66%
60 |  |  | O=C(/C=C/c1cnccc1-c1cnn(C2CC2)c1)Nc1ccc(CN2CC(F)(F)C2)cc1.O=S(=O)(O)O |  | 70%
